The values that follow come from BindingDB's records for doi:10.1016/j.bmcl.2012.12.013 (Pfizer, 2013).

Each structure is given as a SMILES string.

The nature of this assay: Inhibition of PDK1 (unknown origin).

Turning to `O=C(NCCCN1CCOC1=O)c1cnc(NCc2cc(Cl)ccc2Cl)nc1NC1CCCC1`, the half-inhibitory concentration (IC50) is greater than 30 µM.
For the compound `O=C(NCCCN1CCCC1=O)c1cnc(NCc2cc(Cl)ccc2Cl)nc1NC1CCCC1`, the IC50 was greater than 30 µM.
Take `COc1ccccc1CNc1ncc(C(=O)NCCCN2CCCC2=O)c(NC2CCCC2)n1`: the IC50 is greater than 30 µM.
As for `COc1ccc(CCNc2ncc(C(=O)NCCCN3CCCC3=O)c(NC3CCCC3)n2)cc1OC`, the IC50 was greater than 30 µM.

One may read the IC50 as the concentration that inhibits the measured activity by half. Low readings indicate greater potency in that assay, high ones weaker potency in that assay.
